Laboratory results as given in PMC9898036, “VIP152 is a selective CDK9 inhibitor with pre-clinical in vitro and in vivo efficacy in chronic lymphocytic leukemia” (Leukemia, 2022).
Read-outs that look alike come from different tables or passages of the source.

Legend:
Assay in all cases: DiscoverX KINOMEscan kinase profiling (468 assays)
Assay type in all cases: binding
[1] = biological target: human kinome (Homo sapiens, UniProt O00329); settings: read-out: Percent Control
Method in brief: (§1)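 DNA-tagged kinases competed for immobilized biotinylated ligands on streptavidin magnetic beads, with bound kinase quantified by qPCR. VIP152 in DMSO was tested against a DMSO control.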

[2] = biological target: human kinome (Homo sapiens, UniProt O00444); settings: read-out: Percent Control
human kinome (Homo sapiens, UniProt O00444), sequence (O00444 whole entry): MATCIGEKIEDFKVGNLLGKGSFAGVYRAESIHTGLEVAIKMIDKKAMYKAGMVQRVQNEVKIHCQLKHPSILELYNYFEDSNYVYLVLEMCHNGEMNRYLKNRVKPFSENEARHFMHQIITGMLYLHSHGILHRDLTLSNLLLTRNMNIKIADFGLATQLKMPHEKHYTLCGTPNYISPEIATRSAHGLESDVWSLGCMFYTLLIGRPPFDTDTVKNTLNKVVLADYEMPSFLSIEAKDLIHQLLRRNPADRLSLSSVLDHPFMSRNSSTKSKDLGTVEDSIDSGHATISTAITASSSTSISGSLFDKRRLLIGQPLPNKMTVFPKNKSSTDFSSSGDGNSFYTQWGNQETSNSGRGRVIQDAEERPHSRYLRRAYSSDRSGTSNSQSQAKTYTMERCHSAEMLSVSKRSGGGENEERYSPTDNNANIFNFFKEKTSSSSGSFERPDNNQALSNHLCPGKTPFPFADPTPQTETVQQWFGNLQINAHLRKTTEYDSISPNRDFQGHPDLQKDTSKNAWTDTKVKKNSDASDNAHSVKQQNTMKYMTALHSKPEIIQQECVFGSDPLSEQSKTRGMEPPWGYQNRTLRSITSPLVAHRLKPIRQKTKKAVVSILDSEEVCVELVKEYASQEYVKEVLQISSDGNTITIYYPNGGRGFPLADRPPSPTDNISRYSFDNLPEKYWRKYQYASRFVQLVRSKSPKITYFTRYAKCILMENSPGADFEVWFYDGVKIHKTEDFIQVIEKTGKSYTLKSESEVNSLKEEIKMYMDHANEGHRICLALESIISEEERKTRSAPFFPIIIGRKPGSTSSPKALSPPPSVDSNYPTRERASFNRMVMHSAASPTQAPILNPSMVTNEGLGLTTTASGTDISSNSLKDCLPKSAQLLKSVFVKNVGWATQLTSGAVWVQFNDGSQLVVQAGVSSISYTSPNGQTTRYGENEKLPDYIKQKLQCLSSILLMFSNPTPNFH
Method in brief: as §1

[3] = biological target: human kinome (Homo sapiens, UniProt P00533, G719C); settings: EGFR(G719C); 100 nM; read-out: Percent Control
Method in brief: as §1

[4] = biological target: human kinome (Homo sapiens, UniProt P0C1S8); settings: kinase WEE2 (Entrez WEE2); compound concentration 1000 nM; read-out: Percent Control
Method in brief: as §1

[5] = biological target: human kinome (Homo sapiens, UniProt P10721, V559D); settings: KIT(V559D); 100 nM; read-out: Percent Control
Method in brief: as §1

[6] = biological target: human kinome (Homo sapiens, UniProt P22607, G697C); settings: FGFR3(G697C); 100 nM; read-out: Percent Control
Method in brief: as §1

[7] = biological target: human kinome (Homo sapiens, UniProt P27037); settings: ACVR2A; 100 nM; read-out: Percent Control
Method in brief: as §1

[8] = biological target: human kinome (Homo sapiens, UniProt P27361); settings: ERK1 (Entrez MAPK3); 100 nM; read-out: Percent Control
Method in brief: as §1

[9] = biological target: human kinome (Homo sapiens, UniProt P31749); settings: AKT1; 100 nM; read-out: Percent Control
Method in brief: as §1

[10] = biological target: human kinome (Homo sapiens, UniProt P36888); settings: 100 nM, read-out: Percent Control
human kinome (Homo sapiens, UniProt P36888), sequence (P36888 27-993): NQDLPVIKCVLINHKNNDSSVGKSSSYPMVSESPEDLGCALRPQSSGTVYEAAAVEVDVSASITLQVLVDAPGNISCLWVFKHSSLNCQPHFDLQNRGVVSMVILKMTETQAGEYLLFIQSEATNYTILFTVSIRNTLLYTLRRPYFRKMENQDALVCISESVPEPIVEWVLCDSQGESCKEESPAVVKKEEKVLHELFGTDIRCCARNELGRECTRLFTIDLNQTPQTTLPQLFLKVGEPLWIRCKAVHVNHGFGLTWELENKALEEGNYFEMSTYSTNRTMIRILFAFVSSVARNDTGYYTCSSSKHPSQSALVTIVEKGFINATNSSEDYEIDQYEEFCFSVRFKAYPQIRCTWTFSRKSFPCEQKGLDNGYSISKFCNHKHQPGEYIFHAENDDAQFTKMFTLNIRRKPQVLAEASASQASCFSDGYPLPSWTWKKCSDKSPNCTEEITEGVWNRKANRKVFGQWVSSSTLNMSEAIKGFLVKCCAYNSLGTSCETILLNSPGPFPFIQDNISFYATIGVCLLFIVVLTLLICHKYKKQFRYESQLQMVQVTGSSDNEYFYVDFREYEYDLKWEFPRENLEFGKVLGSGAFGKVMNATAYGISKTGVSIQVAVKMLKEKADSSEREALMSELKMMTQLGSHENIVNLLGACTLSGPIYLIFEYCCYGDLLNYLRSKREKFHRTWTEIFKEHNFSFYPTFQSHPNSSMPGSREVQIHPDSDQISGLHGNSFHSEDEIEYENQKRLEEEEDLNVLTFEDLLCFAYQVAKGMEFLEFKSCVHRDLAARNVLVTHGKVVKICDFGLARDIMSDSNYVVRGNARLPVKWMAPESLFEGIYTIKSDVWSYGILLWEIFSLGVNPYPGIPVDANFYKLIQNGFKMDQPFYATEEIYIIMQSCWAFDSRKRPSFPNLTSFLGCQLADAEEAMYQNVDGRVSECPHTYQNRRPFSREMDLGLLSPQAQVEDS
Method in brief: as §1

[11] = biological target: human kinome (Homo sapiens, UniProt P42336, E545K); settings: read-out: Percent Control
human kinome (Homo sapiens, UniProt P42336, E545K), sequence (P42336 whole entry E545K): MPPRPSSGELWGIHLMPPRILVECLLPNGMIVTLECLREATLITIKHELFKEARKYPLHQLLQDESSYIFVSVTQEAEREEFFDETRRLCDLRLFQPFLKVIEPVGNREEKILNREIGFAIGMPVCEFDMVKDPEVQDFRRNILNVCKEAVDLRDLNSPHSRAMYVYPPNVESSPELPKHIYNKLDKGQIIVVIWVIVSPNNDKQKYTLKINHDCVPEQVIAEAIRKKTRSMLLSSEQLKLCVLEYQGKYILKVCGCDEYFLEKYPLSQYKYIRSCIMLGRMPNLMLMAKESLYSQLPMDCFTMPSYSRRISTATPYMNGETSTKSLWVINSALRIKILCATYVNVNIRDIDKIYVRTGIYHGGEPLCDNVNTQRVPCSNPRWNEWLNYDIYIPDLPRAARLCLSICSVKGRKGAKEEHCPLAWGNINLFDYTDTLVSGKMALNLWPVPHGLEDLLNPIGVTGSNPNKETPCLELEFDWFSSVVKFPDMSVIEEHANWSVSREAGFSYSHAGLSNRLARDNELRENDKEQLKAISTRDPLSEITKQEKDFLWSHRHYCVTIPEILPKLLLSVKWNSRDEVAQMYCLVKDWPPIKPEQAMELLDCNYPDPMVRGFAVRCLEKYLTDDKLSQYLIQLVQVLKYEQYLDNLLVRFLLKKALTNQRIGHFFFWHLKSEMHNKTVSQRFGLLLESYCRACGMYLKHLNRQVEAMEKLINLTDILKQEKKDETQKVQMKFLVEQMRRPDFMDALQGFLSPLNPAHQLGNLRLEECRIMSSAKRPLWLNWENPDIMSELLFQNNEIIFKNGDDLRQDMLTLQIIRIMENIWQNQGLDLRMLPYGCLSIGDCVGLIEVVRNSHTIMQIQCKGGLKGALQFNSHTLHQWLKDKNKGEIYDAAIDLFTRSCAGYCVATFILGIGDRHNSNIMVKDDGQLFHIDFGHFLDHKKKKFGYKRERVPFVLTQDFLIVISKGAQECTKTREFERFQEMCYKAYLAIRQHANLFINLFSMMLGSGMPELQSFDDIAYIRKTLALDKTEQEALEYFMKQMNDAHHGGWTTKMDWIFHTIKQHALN
Method in brief: as §1

[12] = biological target: human kinome (Homo sapiens, UniProt P42336, H1047L); settings: read-out: Percent Control
human kinome (Homo sapiens, UniProt P42336, H1047L), sequence (P42336 whole entry H1047L): as the sequence (P42336 whole entry E545K) above, with K545E, H1047L counted along it
Method in brief: as §1

[13] = biological target: human kinome (Homo sapiens, UniProt P45984); settings: JNK2 (Entrez MAPK9); 100 nM; read-out: Percent Control
Method in brief: as §1

[14] = biological target: human kinome (Homo sapiens, UniProt P49137); settings: MAPKAPK2; 100 nM; read-out: Percent Control
Method in brief: as §1

[15] = biological target: human kinome (Homo sapiens, UniProt P51955); settings: read-out: Percent Control
human kinome (Homo sapiens, UniProt P51955), sequence (P51955 whole entry): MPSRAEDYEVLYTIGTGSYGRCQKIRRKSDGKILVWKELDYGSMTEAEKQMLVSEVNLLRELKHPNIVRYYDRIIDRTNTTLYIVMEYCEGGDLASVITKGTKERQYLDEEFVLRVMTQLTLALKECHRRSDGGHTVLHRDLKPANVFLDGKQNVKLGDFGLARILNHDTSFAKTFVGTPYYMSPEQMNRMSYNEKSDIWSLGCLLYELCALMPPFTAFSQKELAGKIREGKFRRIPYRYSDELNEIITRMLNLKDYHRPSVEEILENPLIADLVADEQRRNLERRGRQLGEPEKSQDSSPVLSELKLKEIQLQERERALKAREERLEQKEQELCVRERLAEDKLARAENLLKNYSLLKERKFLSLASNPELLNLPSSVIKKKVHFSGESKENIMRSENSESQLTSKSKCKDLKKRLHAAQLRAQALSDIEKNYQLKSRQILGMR
Method in brief: as §1

[16] = biological target: human kinome (Homo sapiens, UniProt Q09013); settings: DMPK; 100 nM; read-out: Percent Control
Method in brief: as §1

[17] = biological target: human kinome (Homo sapiens, UniProt Q13188); settings: MST2 (Entrez STK3); 100 nM; read-out: Percent Control
Method in brief: as §1

[18] = biological target: human kinome (Homo sapiens, UniProt Q13554); settings: CAMK2B; 100 nM; read-out: Percent Control
Method in brief: as §1

[19] = biological target: human kinome (Homo sapiens, UniProt Q13555); settings: CAMK2G; 100 nM; read-out: Percent Control
Method in brief: as §1

[20] = biological target: human kinome (Homo sapiens, UniProt Q15831); settings: LKB1 (Entrez STK11); 100 nM; read-out: Percent Control
Method in brief: as §1

[21] = biological target: human kinome (Homo sapiens, UniProt Q16659); settings: ERK3 (Entrez MAPK6); 100 nM; read-out: Percent Control
Method in brief: as §1

[22] = biological target: human kinome (Homo sapiens, UniProt Q6PHR2); settings: kinase ULK3 (Entrez ULK3); compound concentration 1000 nM; read-out: Percent Control
Method in brief: as §1

[23] = biological target: human kinome (Homo sapiens, UniProt Q7L7X3); settings: kinase TAOK1 (Entrez TAOK1); compound concentration 1000 nM; read-out: Percent Control
Method in brief: as §1

[24] = biological target: human kinome (Homo sapiens, UniProt Q8IVH8); settings: MAP4K3; 100 nM; read-out: Percent Control
Method in brief: as §1

[25] = biological target: human kinome (Homo sapiens, UniProt Q8TDX7); settings: read-out: Percent Control
human kinome (Homo sapiens, UniProt Q8TDX7), sequence (Q8TDX7 whole entry): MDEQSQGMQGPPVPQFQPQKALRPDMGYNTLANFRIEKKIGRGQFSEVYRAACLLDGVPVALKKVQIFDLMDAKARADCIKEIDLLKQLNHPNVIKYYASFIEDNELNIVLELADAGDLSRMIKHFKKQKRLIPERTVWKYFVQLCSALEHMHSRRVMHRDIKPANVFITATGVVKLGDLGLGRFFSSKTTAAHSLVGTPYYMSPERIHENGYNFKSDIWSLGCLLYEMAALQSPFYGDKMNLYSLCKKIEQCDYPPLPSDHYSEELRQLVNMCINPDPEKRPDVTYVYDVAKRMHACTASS
Method in brief: as §1

[26] = biological target: human kinome (Homo sapiens, UniProt Q96SB4); settings: kinase SRPK1 (Entrez SRPK1); compound concentration 1000 nM; read-out: Percent Control
Method in brief: as §1

[27] = biological target: human kinome (Homo sapiens, UniProt Q9H3Y6); settings: kinase SRMS (Entrez SRMS); compound concentration 1000 nM; read-out: Percent Control
Method in brief: as §1

[28] = biological target: human kinome (Homo sapiens, UniProt Q9HAZ1); settings: CLK4; 100 nM; read-out: Percent Control
Method in brief: as §1

[29] = biological target: human kinome (Homo sapiens, UniProt Q9UM73, C1156Y); settings: ALK(C1156Y); 100 nM; read-out: Percent Control
Method in brief: as §1

[30] = biological target: human kinome (Homo sapiens, UniProt Q9UQ88); settings: CDC2L2; 100 nM; read-out: Percent Control
Method in brief: as §1

human kinome (Homo sapiens, UniProt O00329), sequence (O00329 whole entry): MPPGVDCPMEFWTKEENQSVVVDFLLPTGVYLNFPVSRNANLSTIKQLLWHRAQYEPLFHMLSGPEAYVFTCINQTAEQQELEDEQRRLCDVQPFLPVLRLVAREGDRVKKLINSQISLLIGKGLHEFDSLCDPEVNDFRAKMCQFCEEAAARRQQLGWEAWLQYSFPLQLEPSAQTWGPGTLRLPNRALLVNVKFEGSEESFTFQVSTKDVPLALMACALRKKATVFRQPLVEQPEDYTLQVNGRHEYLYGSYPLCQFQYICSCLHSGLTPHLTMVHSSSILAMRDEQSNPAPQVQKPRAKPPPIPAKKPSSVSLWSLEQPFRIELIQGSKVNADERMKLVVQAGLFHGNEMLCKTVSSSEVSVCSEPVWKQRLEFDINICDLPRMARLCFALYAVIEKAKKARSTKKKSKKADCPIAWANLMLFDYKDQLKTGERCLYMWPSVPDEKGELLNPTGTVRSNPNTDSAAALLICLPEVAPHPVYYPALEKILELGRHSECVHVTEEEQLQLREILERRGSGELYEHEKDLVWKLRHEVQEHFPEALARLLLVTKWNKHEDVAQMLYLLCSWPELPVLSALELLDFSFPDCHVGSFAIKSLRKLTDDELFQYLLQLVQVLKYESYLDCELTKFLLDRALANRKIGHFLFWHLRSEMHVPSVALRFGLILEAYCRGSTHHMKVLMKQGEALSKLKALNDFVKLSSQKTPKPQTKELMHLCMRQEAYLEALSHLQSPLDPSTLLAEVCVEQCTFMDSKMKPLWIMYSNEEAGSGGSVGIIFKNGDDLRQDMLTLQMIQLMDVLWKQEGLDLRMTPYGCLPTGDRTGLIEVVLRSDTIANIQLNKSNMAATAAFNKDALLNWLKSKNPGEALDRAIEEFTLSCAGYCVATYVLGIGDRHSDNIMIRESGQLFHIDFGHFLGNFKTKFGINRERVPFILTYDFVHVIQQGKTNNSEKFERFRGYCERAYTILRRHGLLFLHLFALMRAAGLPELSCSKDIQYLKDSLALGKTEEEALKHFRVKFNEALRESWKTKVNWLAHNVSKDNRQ

Molecule `COc1cc(F)ccc1-c1cc(Nc2cc(CS(C)(=N)=O)ccn2)ncc1F` (stereo not shown) [VIP152] has a remaining binding at 0.1 µM ([1]; PIK3CD, 100 nM) of 100%, a remaining binding at 1 µM ([1]; kinase PIK3CD (Entrez PIK3CD), compound concentration 1000 nM) of 75% and a remaining binding at 0.1 µM ([2]; PLK4, 100 nM) of 100%. The remaining binding at 1 µM ([2]; kinase PLK4 (Entrez PLK4), compound concentration 1000 nM) was 79%, the remaining binding at 0.1 µM [3] was 100% and the remaining binding at 1 µM [4] was 89%. It also gave a remaining binding at 0.1 µM [5] of 100%, a remaining binding at 0.1 µM [6] of 100% and a remaining binding at 0.1 µM [7] of 91%. For the same molecule, the remaining binding at 0.1 µM [8] was 100%, the remaining binding at 0.1 µM [9] was 100% and the remaining binding at 0.1 µM ([10]; FLT3-autoinhibited) was 99%. It also gave a remaining binding at 0.1 µM ([10]; FLT3) of 72%, a remaining binding at 0.1 µM ([11]; PIK3CA(E545K), 100 nM) of 92% and a remaining binding at 1 µM ([11]; kinase PIK3CA(E545K) (Entrez PIK3CA), compound concentration 1000 nM) of 93%. The remaining binding at 0.1 µM ([12]; PIK3CA(H1047L), 100 nM) was 100%, the remaining binding at 1 µM ([12]; kinase PIK3CA(H1047L) (Entrez PIK3CA), compound concentration 1000 nM) was 100% and the remaining binding at 0.1 µM [13] was 89%. It also gave a remaining binding at 0.1 µM [14] of 100%, a remaining binding at 0.1 µM ([15]; NEK2, 100 nM) of 100% and a remaining binding at 1 µM ([15]; kinase NEK2 (Entrez NEK2), compound concentration 1000 nM) of 84%. The remaining binding at 0.1 µM [16] was 96%, the remaining binding at 0.1 µM [17] was 99% and the remaining binding at 0.1 µM [18] was 100%. The remaining binding at 0.1 µM [19] was 100%, the remaining binding at 0.1 µM [20] was 100% and the remaining binding at 0.1 µM [21] was 100%. The remaining binding at 1 µM [22] was 85%, the remaining binding at 1 µM [23] was 62% and the remaining binding at 0.1 µM [24] was 100%. For the same molecule, the remaining binding at 0.1 µM ([25]; NEK7, 100 nM) was 100%, the remaining binding at 1 µM ([25]; kinase NEK7 (Entrez NEK7), compound concentration 1000 nM) was 94% and the remaining binding at 1 µM [26] was 91%. It also gave a remaining binding at 1 µM [27] of 83%, a remaining binding at 0.1 µM [28] of 100% and a remaining binding at 0.1 µM [29] of 100%. For the same molecule, the remaining binding at 0.1 µM [30] was 100%.
